Laboratory results published in ChEMBL document CHEMBL1201862, “PubChem BioAssay data set” (2004).
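96-well plates; 48 h exposure; 5 concentrations. Endpoints by linear interpolation between flanking doses. Not reached: highest tested concentration assigned. GI50 is the concentration that inhibits growth by half.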 Activity calls are given as the source filed them. No stated cut-off is given here; in the data, active = GI50 up to about 1.1 µM and inactive = higher.

How the values were obtained:
Experiment in all cases: NCI-60 cell line screen, 48 h
PC-3 = tested on: PC-3
HL-60 = tested on: HL-60
OVCAR-4 = tested on: OVCAR-4
HCC 2998 = tested on: HCC 2998
Hs-578T = tested on: Hs-578T
RXF 393 = tested on: RXF 393
COLO 205 = tested on: COLO 205
CCRF-CEM = tested on: CCRF-CEM
MDA-MB-231 = tested on: MDA-MB-231
786-0 = tested on: 786-0
OVCAR-8 = tested on: OVCAR-8
OVCAR-5 = tested on: OVCAR-5
EKVX = tested on: EKVX
CAKI-1 = tested on: CAKI-1
MCF7 = tested on: MCF7
MDA-N = tested on: MDA-N
T47D = tested on: T47D
MDA-MB-435 = tested on: MDA-MB-435
SNB-19 = tested on: SNB-19

Measured: GI50

O=C1NC(c2ccccc2Cl)Nc2ccccc21 (stereo not drawn)
inactive: PC-3 21.4 µM | HL-60 2.91 µM | OVCAR-4 27.5 µM | HCC 2998 11.3 µM | Hs-578T 9.53 µM | RXF 393 15.3 µM | COLO 205 8.49 µM | CCRF-CEM 11.4 µM | MDA-MB-231 33.2 µM | 786-0 28.4 µM | OVCAR-8 38.6 µM | OVCAR-5 > 100 µM | EKVX 27.7 µM | CAKI-1 5.71 µM | MCF7 > 65.3 µM | MDA-N 1.47 µM | T47D 48.5 µM | MDA-MB-435 1.65 µM | SNB-19 15.1 µM

C[C@@]12C[C@@H](c3ccccc3O1)N1CCCSC1=N2
inactive: PC-3 > 100 µM | HL-60 > 100 µM | OVCAR-4 > 100 µM | HCC 2998 > 100 µM | Hs-578T > 100 µM | RXF 393 > 100 µM | COLO 205 > 100 µM | CCRF-CEM > 100 µM | MDA-MB-231 > 100 µM | 786-0 > 100 µM | OVCAR-8 > 100 µM | OVCAR-5 > 100 µM | EKVX > 100 µM | CAKI-1 > 100 µM | MCF7 > 100 µM | MDA-N > 100 µM | T47D > 100 µM | MDA-MB-435 > 100 µM | SNB-19 > 100 µM

NC(=O)N(O)c1cccc(Br)c1
inactive: PC-3 > 100 µM | HL-60 > 100 µM | OVCAR-4 > 100 µM | HCC 2998 > 100 µM | Hs-578T > 100 µM | RXF 393 > 100 µM | COLO 205 > 100 µM | CCRF-CEM > 100 µM | MDA-MB-231 > 100 µM | 786-0 > 100 µM | OVCAR-8 > 100 µM | OVCAR-5 > 100 µM | EKVX > 100 µM | CAKI-1 > 100 µM | MCF7 > 100 µM | MDA-N > 100 µM | T47D > 100 µM | MDA-MB-435 > 100 µM | SNB-19 > 100 µM

COc1ccc(C2SC(=N)Nc3c2c(C)nn3C(=O)c2ccccc2O)cc1 (stereo not drawn)
active: Hs-578T 0.49 µM | RXF 393 0.532 µM | MDA-MB-231 0.986 µM | OVCAR-8 0.998 µM | CAKI-1 0.667 µM | MDA-N 0.843 µM | MDA-MB-435 0.455 µM
inactive: PC-3 3.81 µM | HL-60 2.58 µM | OVCAR-4 1.9 µM | HCC 2998 > 10 µM | COLO 205 8.87 µM | CCRF-CEM 2.04 µM | 786-0 1.31 µM | OVCAR-5 8.09 µM | EKVX 7.38 µM | MCF7 1.61 µM | T47D 8.99 µM | SNB-19 > 10 µM

Brc1ccc2[nH]cc(-c3csc(-c4c[nH]c5ccc(Br)cc45)n3)c2c1
inactive: PC-3 1.97 µM | HL-60 3.24 µM | OVCAR-4 2.26 µM | HCC 2998 1.86 µM | Hs-578T 3.79 µM | RXF 393 2.14 µM | COLO 205 1.61 µM | CCRF-CEM 1.92 µM | MDA-MB-231 1.66 µM | 786-0 1.8 µM | OVCAR-8 2.45 µM | OVCAR-5 1.97 µM | EKVX 1.48 µM | CAKI-1 1.95 µM | MCF7 2.7 µM | MDA-N 2.25 µM | T47D 2.44 µM | MDA-MB-435 1.93 µM | SNB-19 2.88 µM

CN1CCN(c2c(Cl)cc(Cl)c3[nH]c4ccccc4c(=O)c23)CC1
active: CCRF-CEM 0.67 µM
inactive: PC-3 6.38 µM | HL-60 2.28 µM | OVCAR-4 11.7 µM | HCC 2998 5.66 µM | Hs-578T 4.8 µM | RXF 393 12.6 µM | COLO 205 4.17 µM | MDA-MB-231 10.3 µM | 786-0 5.75 µM | OVCAR-8 5.07 µM | OVCAR-5 10.2 µM | EKVX 10.5 µM | CAKI-1 5.68 µM | MCF7 1.43 µM | MDA-N 8.41 µM | T47D 9.23 µM | MDA-MB-435 5.71 µM | SNB-19 6.4 µM

COc1ccc(-c2cc(-c3ccccc3)[nH]c(=S)c2C#N)cc1
inactive: PC-3 19.9 µM | HL-60 46.8 µM | OVCAR-4 38.6 µM | HCC 2998 28.2 µM | Hs-578T 39.2 µM | RXF 393 39.8 µM | COLO 205 > 10 µM | CCRF-CEM 17.3 µM | MDA-MB-231 32.4 µM | 786-0 27.2 µM | OVCAR-8 29.8 µM | OVCAR-5 62.1 µM | EKVX 55.8 µM | CAKI-1 61 µM | MCF7 30.7 µM | MDA-N 31.1 µM | T47D 8.63 µM | MDA-MB-435 20.1 µM | SNB-19 40.4 µM
